Measurements reported in article PMC6597546, “Identification of a potent benzoxaborole drug candidate for treating cryptosporidiosis” (Nature Communications, 2019).
Several values for one entry are separate records, joined by “and”; a condition that tells them apart may be missing. Equal values may be shown once.

Tested on: C. parvum (Bunch Grass Farms Iowa isolate)
Assay: Neonatal calf model of cryptosporidiosis
Assay type: in vivo
Design: key to Oocyst Shedding, individual calves / Oocyst Shedding: C. parvum abundance per gram of fecal dry matter (qPCR); key to Fecal Consistency Score, individual calves / Fecal Consistency Score: score 1 = normal, 3 = severely abnormal
Procedure: All calf efficacy studies were performed as previously described. These studies were approved by the University of Vermont Institutional animal Care and Use Committee, and conducted in compliance with the USDA-APHIS “Blue Book”, available at www.aphis.usda.gov/animal-welfare. Holstein bull calves were acquired at birth from Green Mountain Dairy (Sheldon, VT), given synthetic colostrum with 200 g of IgG (Land O’Lakes, Ardent Hills, MO) and bovine coronavirus and Escherichia coli antibodies (First Defense Bolus, Immuncell Corporation, Portland, ME) within 2 h of birth, and transported to UVM. Calves were group-housed initially, and infected at 24–48 h of age during an interruption in bottle feeding by oral administration of ∼5 × 10^7 C. parvum Iowa isolate oocysts (Bunch Grass Farms, Deary, ID) suspended in 10 mL of water. They were then moved to individual raised pens, and observed twice daily at feeding times for clinical signs, which were quantified according to a previously described standardized scoring rubric. Data on fecal consistency, dehydration and overall health were collected, in each case with a score of 1 being normal and 3 being severely abnormal (scoring rubric in Supplementary Table 2). Clinical microbiologic studies for adventitious infectious agents including Salmonella culture, aerobic bacterial culture with E. coli genotyping, rotavirus, and coronavirus testing were performed on all calves at the onset of diarrhea by the Cornell Animal Health Diagnostic Center (Ithaca, NY). Animals with severe diarrhea or other symptoms were supported aggressively, including with administration of oral electrolytes, intravenous fluids and flunixin meglumine (Banamine, Merck) as needed. […] Daily fecal samples were obtained from collections bins located under each pen. Fecal samples used for parasite quantification were dried at 90 °C until stable in weight, and C. parvum abundance per gram of fecal dry matter was measured using qPCR and the primers Cp18s forward and Cp18s reverse.

[1] = 5 mg per kg twice daily oral, days 2–8
[2] = 6.67 mg/kg every 8 h for three days, Calf 1, Day 0
[3] = 6.67 mg/kg every 8 h for three days, Calf 1, Day 1
[4] = 6.67 mg/kg every 8 h for three days, Calf 1, Day 2
[5] = 6.67 mg/kg every 8 h for three days, Calf 1, Day 3
[6] = 6.67 mg/kg every 8 h for three days, Calf 1, Day 4
[7] = 6.67 mg/kg every 8 h for three days, Calf 1, Day 5
[8] = 6.67 mg/kg every 8 h for three days, Calf 1, Day 6
[9] = 6.67 mg/kg every 8 h for three days, Calf 1, Day 7
[10] = 6.67 mg/kg every 8 h for three days, Calf 1, Day 8
[11] = 6.67 mg/kg every 8 h for three days, Calf 1, Day 9
[12] = 6.67 mg/kg every 8 h for three days, Calf 1, Day 10
[13] = 6.67 mg/kg every 8 h for three days, Calf 1, Day 11
[14] = 6.67 mg/kg every 8 h for three days, Calf 1, Day 12
[15] = 6.67 mg/kg every 8 h for three days, Calf 1, Day 13
[16] = 6.67 mg/kg every 8 h for three days, Calf 1, Day 14
[17] = 6.67 mg/kg every 8 h for three days, Calf 2, Day 0
[18] = 6.67 mg/kg every 8 h for three days, Calf 2, Day 1
[19] = 6.67 mg/kg every 8 h for three days, Calf 2, Day 2
[20] = 6.67 mg/kg every 8 h for three days, Calf 2, Day 3
[21] = 6.67 mg/kg every 8 h for three days, Calf 2, Day 4
[22] = 6.67 mg/kg every 8 h for three days, Calf 2, Day 5
[23] = 6.67 mg/kg every 8 h for three days, Calf 2, Day 6
[24] = 6.67 mg/kg every 8 h for three days, Calf 2, Day 7
[25] = 6.67 mg/kg every 8 h for three days, Calf 2, Day 8
[26] = 6.67 mg/kg every 8 h for three days, Calf 2, Day 9
[27] = 6.67 mg/kg every 8 h for three days, Calf 2, Day 10
[28] = 6.67 mg/kg every 8 h for three days, Calf 2, Day 11
[29] = 6.67 mg/kg every 8 h for three days, Calf 2, Day 12
[30] = 6.67 mg/kg every 8 h for three days, Calf 2, Day 13
[31] = 6.67 mg/kg every 8 h for three days, Calf 2, Day 14
[32] = 6.67 mg/kg every 8 h for three days, Calf 3, Day 0
[33] = 6.67 mg/kg every 8 h for three days, Calf 3, Day 1
[34] = 6.67 mg/kg every 8 h for three days, Calf 3, Day 2
[35] = 6.67 mg/kg every 8 h for three days, Calf 3, Day 3
[36] = 6.67 mg/kg every 8 h for three days, Calf 3, Day 4
[37] = 6.67 mg/kg every 8 h for three days, Calf 3, Day 5
[38] = 6.67 mg/kg every 8 h for three days, Calf 3, Day 6
[39] = 6.67 mg/kg every 8 h for three days, Calf 3, Day 7
[40] = 6.67 mg/kg every 8 h for three days, Calf 3, Day 8
[41] = 6.67 mg/kg every 8 h for three days, Calf 3, Day 9
[42] = 6.67 mg/kg every 8 h for three days, Calf 3, Day 10
[43] = 6.67 mg/kg every 8 h for three days, Calf 3, Day 11
[44] = 6.67 mg/kg every 8 h for three days, Calf 3, Day 12
[45] = 6.67 mg/kg every 8 h for three days, Calf 3, Day 13
[46] = 6.67 mg/kg every 8 h for three days, Calf 3, Day 14
[47] = 10 mg per kg twice daily for 7 days begun day 4
[48] = 10 mg/kg every 12 h with delayed start, Calf 1, Day 0
[49] = 10 mg/kg every 12 h with delayed start, Calf 1, Day 1

CC1(C)OB(O)c2cc(NC(=O)c3ccc(-n4cccn4)cc3Cl)ccc21 [AN7973]
effect on diarrhea [1]: completely eliminated diarrhea | effect on parasite shedding [1]: curtailed parasite shedding | AUC for the dehydration scores, individual animals (5 mg/kg BID): 0 | AUC for the diarrhea scores, individual animals (5 mg/kg BID): 0 | Oocyst Shedding, individual calves (5 mg/kg every 12 h on days 2–8, Day 0): 100 | Oocyst Shedding, individual calves (5 mg/kg every 12 h on days 2–8, Day 1): 100 and 583 | Oocyst Shedding, individual calves (5 mg/kg every 12 h on days 2–8, Day 2): 4179 and 2794 | Oocyst Shedding, individual calves (5 mg/kg every 12 h on days 2–8, Day 3): 46248 and 34331 | Oocyst Shedding, individual calves (5 mg/kg every 12 h on days 2–8, Day 4): 68492 and 55772 | Oocyst Shedding, individual calves (5 mg/kg every 12 h on days 2–8, Day 6): 265539 and 3628 | Oocyst Shedding, individual calves (5 mg/kg every 12 h on days 2–8, Day 7): 39302 and 2599 | Oocyst Shedding, individual calves (5 mg/kg every 12 h on days 2–8, Day 8): 43202 and 100 | Oocyst Shedding, individual calves (5 mg/kg every 12 h on days 2–8, Day 9): 146 and 100 | Oocyst Shedding, individual calves (5 mg/kg every 12 h on days 2–8, Day 10): 611 and 192 | effect on diarrhea (6.67 mg per kg three times per day for 3 days): eliminated diarrhea | reduction of the rate of parasite shedding during treatment (6.67 mg per kg three times per day for 3 days, parasitological relapse followed): ~3 log | AUC for the dehydration scores, individual animals (6.67 mg/kg TID (3 days)): 0 and 0.3333 | AUC for the diarrhea scores, individual animals (6.67 mg/kg TID (3 days)): 0 and 1.333 | Fecal Consistency Score [2]: 1 | Oocyst Shedding [2]: 415 | Fecal Consistency Score [3]: 1 | Oocyst Shedding [3]: 1163 | Fecal Consistency Score [4]: 1 | Oocyst Shedding [4]: 989897 | Fecal Consistency Score [5]: 1 | Oocyst Shedding [5]: 285174 | Fecal Consistency Score [6]: 1 | Oocyst Shedding [6]: 27986 | Fecal Consistency Score [7]: 1 | Oocyst Shedding [7]: 2214 | Fecal Consistency Score [8]: 1 | Oocyst Shedding [8]: 10466 | Fecal Consistency Score [9]: 1 | Oocyst Shedding [9]: 16062 | Fecal Consistency Score [10]: 1 | Oocyst Shedding [10]: 525550 | Fecal Consistency Score [11]: 1 | Oocyst Shedding [11]: 522608 | Fecal Consistency Score [12]: 1 | Oocyst Shedding [12]: 905562 | Fecal Consistency Score [13]: 1 | Oocyst Shedding [13]: 8303500 | Fecal Consistency Score [14]: 1 | Oocyst Shedding [14]: 134619 | Fecal Consistency Score [15]: 1 | Oocyst Shedding [15]: 473515 | Fecal Consistency Score [16]: 1 | Oocyst Shedding [16]: 35244 | Fecal Consistency Score [17]: 2 | Oocyst Shedding [17]: 1 | Fecal Consistency Score [18]: 2 | Oocyst Shedding [18]: 16497 | Fecal Consistency Score [19]: 1 | Oocyst Shedding [19]: 909 | Fecal Consistency Score [20]: 1 | Oocyst Shedding [20]: 179330 | Fecal Consistency Score [21]: 1 | Oocyst Shedding [21]: 38982 | Fecal Consistency Score [22]: 1 | Oocyst Shedding [22]: 6563 | Fecal Consistency Score [23]: 1 | Oocyst Shedding [23]: 1 | Fecal Consistency Score [24]: 1 | Oocyst Shedding [24]: 1 | Fecal Consistency Score [25]: 1 | Oocyst Shedding [25]: 1 | Fecal Consistency Score [26]: 1 | Oocyst Shedding [26]: 1 | Fecal Consistency Score [27]: 1 | Oocyst Shedding [27]: 162 | Fecal Consistency Score [28]: 1 | Oocyst Shedding [28]: 82 | Fecal Consistency Score [29]: 1 | Oocyst Shedding [29]: 1213 | Fecal Consistency Score [30]: 1 | Oocyst Shedding [30]: 387 | Fecal Consistency Score [31]: 1 | Oocyst Shedding [31]: 188 | Fecal Consistency Score [32]: 1 | Oocyst Shedding [32]: 1089 | Fecal Consistency Score [33]: 1 | Oocyst Shedding [33]: 3597 | Fecal Consistency Score [34]: 1.33 | Oocyst Shedding [34]: 9022387 | Fecal Consistency Score [35]: 1.67 | Oocyst Shedding [35]: 2560722 | Fecal Consistency Score [36]: 1.5 | Oocyst Shedding [36]: 582683 | Fecal Consistency Score [37]: 1 | Oocyst Shedding [37]: 6828 | Fecal Consistency Score [38]: 1 | Oocyst Shedding [38]: 54223 | Fecal Consistency Score [39]: 1 | Oocyst Shedding [39]: 8461 | Fecal Consistency Score [40]: 1 | Oocyst Shedding [40]: 2785 | Fecal Consistency Score [41]: 1 | Oocyst Shedding [41]: 50511 | Fecal Consistency Score [42]: 1 | Oocyst Shedding [42]: 198125 | Fecal Consistency Score [43]: 1.33 | Oocyst Shedding [43]: 100223 | Fecal Consistency Score [44]: 1 | Oocyst Shedding [44]: 154951 | Fecal Consistency Score [45]: 1 | Oocyst Shedding [45]: 141133 | Fecal Consistency Score [46]: 1.5 | Oocyst Shedding [46]: 78359 | effect on parasite shedding and diarrhea (10 mg per kg once daily oral, days 2–8, shedding resumed and persisted): reduced peak parasite shedding and diarrhea | parasite shedding [47]: abolished by day 14 | reduction of total parasite shedding [47]: greater than 1 log | diarrhea cured faster than in controls (10 mg per kg twice daily for 7 days begun day 4 (peak of symptoms)): 3 days | AUC for the dehydration scores, individual animals (10 mg/kg BID (delayed start)): 0.3333 and 0 and 0.8333 | AUC for the diarrhea scores, individual animals (10 mg/kg BID (delayed start)): 1.167 and 2.333 and 2.833 | AUC for the dehydration scores, individual animals (10 mg/kg QD): 0.3333 and 0.5 | AUC for the diarrhea scores, individual animals (10 mg/kg QD): 2.5 and 1.833 and 2.167 | Fecal Consistency Score [48]: 1.67 | Oocyst Shedding [48]: 1 | Fecal Consistency Score [49]: 2 | Oocyst Shedding [49]: 735
